Measurements as given in paper PMC7725003, “Systematically Studying the Optimal Amino Acid Distribution Patterns of the Amphiphilic Structure by Using the Ultrashort Amphiphiles” (Frontiers in Microbiology, 2020).
Where no end group is shown, it is not given here.

How the values were obtained:
[1] = tested on: E. faecalis 29212; format: cell-based, Enterococcus faecalis; settings: 29212, 24 h
Method: (§1) The antimicrobial activities of the peptides were measured using a method adapted from the National Committee for Clinical Laboratory Standards (NCCLS) with some modifications ([Chou et al., 2016]). The specific procedure for these assays has been previously described. In brief, the bacterial cells were grown to a mid-logarithmic phase and diluted in MHB to an ultimate concentration of 0.5–1 × 10^6 CFU mL^–1. Subsequently, the peptides were consecutively diluted in a 0.2% BSA solution and then added to a bacterial solution in a 96-well plate at identical volumes. After incubation for 24 h at 37°C, the MICs were determined to be the lowest peptide concentration that inhibited 95% of the bacterial growth by monitoring the absorbance at 492 nm using a microplate reader. Subsequently, 50 μL of each incubation mixture was further transferred to agar plates and incubated overnight. The minimum bactericidal concentrations (MBCs) were determined as the lowest peptide concentration that killed greater than 99.9% of the bacterial cells. Every assay was reproduced more than 3 times.

[2] = tested on: S. pullorum 7913; format: cell-based, Salmonella pullorum; settings: 7913, 24 h
Method: as §1

[3] = tested on: B. subtilis 63501; format: cell-based, Bacillus subtilis; settings: 63501, 24 h
Method: as §1

[4] = tested on: S. aureus 25923; format: cell-based, Staphylococcus aureus; settings: 25923, 24 h
Method: as §1

[5] = tested on: S. aureus 29213; format: cell-based, Staphylococcus aureus; settings: 29213, 24 h
Method: as §1

[6] = tested on: MRSA 43300; format: cell-based, methicillin-resistant S. aureus; settings: 43300, 24 h
Method: as §1

[7] = tested on: E. coli ATCC 25922; test: Salt sensitivity assay (MIC); format: cell-based, Escherichia coli; settings: for MIC, FeCl3: 4 μM FeCl3; for MIC, NH4Cl: 6 μM NH4Cl; for MIC, ZnCl2: 8 μM ZnCl2; for MIC, MgCl2: 1 mM MgCl2; for MIC, CaCl2: 2 mM CaCl2; for MIC, KCl: 4.5 mM KCl; for MIC, NaCl: 150 mM NaCl; for MIC, Control: no added salt, three independent assays
Method: as §1
(§2) The salt sensitivities of the peptides were determined. E. coli ATCC 25922 and S. aureus ATCC 29213 were incubated in the presence of various ultimate concentrations of physiological salts (150 mM NaCl, 4.5 mM KCl, 6 μM NH4Cl, 8 μM ZnCl2, 1 mM MgCl2, 2mM CaCl2, and 4 μM FeCl3) according to our previous protocol ([Yang et al., 2019]). These tests were performed under the MICs, and three independent assays were performed.

[8] = tested on: S. aureus 29213; test: Salt sensitivity assay (MIC); format: cell-based, Staphylococcus aureus; settings: for MIC, FeCl3: 4 μM FeCl3; for MIC, NH4Cl: 6 μM NH4Cl; for MIC, ZnCl2: 8 μM ZnCl2; for MIC, MgCl2: 1 mM MgCl2; for MIC, CaCl2: 2 mM CaCl2; for MIC, KCl: 4.5 mM KCl; for MIC, NaCl: 150 mM NaCl; for MIC, Control: no added salt, three independent assays
Method: as §1, §2

[9] = tested on: S. typhimurium 14028; format: cell-based, Salmonella typhimurium; settings: 14028, 24 h
Method: as §1

[10] = tested on: S. typhimurium 7731; format: cell-based, Salmonella typhimurium; settings: 7731, 24 h
Method: as §1

[11] = tested on: Listeria monocytogenes CGMCC 1.1075; format: cell-based; settings: CGMCC 1.1075, 24 h
Method: as §1

[12] = tested on: Gram-negative bacteria; settings: for GM, Gram-negative bacteria: geometric mean of MICs (Table 3); for TI, Gram-negative bacteria: therapeutic index TI = MHC/GM MIC
Method: (§3) The antimicrobial activity of AMPs is the most decisive index for evaluating the clinical application of antimicrobial drugs.
as §1, with “The minimum bactericidal concentrations (MBCs) were determined as the lowest peptide concentration that killed greater than 99.9% of the bacterial cells.” left out

[13] = tested on: Gram-positive bacteria; settings: for GM, Gram-positive bacteria: geometric mean of MICs (Table 3); for TI, Gram-positive bacteria: therapeutic index TI = MHC/GM MIC
Method: as §3
as §1, with “The minimum bactericidal concentrations (MBCs) were determined as the lowest peptide concentration that killed greater than 99.9% of the bacterial cells.” left out

[14] = tested on: E. coli 25922; format: cell-based, Escherichia coli; settings: 25922, 24 h
Method: as §1

[15] = tested on: E. coli O78; format: cell-based, Escherichia coli; settings: O78, 24 h
Method: as §1

[16] = tested on: E. coli UB1005; format: cell-based, Escherichia coli; settings: UB1005, 24 h
Method: as §1

[17] = tested on: S. epidermidis 12228; format: cell-based, Staphylococcus epidermidis; settings: 12228, 24 h
Method: as §1

[18] = tested on: all of the tested bacterial strains; test: Geometric mean of MICs, all tested bacterial strains; format: cell-based; settings: for GM, All: geometric mean of MICs across all tested strains; for TI, All: therapeutic index TI = MHC/GM MIC
Excerpt: The antimicrobial activity of AMPs is the most decisive index for evaluating the clinical application of antimicrobial drugs. Many antimicrobial agents inhibit bacterial growth rather than kill the bacteria quickly, and long-term infections are pathogens that are not completely killed, which results in bacterial severe drug resistance. […] The geometric mean (GM) values of the MICs/MBCs of the two series across all of the tested bacterial strains are represented in Table 3, which depicts the average bacteriostatic/bactericidal level of a peptide.
as §1

[19] = tested on: P. aeruginosa 27853; format: cell-based, Pseudomonas aeruginosa; settings: 27853, 24 h
Method: as §1

Substance: WRRWRWWRW-NH2 [W12]
- MBC [1]: 8 µM
- MIC [1]: 4 µM
- MBC [2]: 8 µM
- MIC [2]: 4 µM
- MBC [3]: 2 µM
- MIC [3]: 1 µM
- MBC [4]: 4 µM
- MIC [4]: 2 µM
- MBC [5]: 4 µM
- MIC [5]: 2 µM
- MBC [6]: 4 µM
- MIC [6]: 2 µM
- MIC, FeCl3 [7]: 4 µM
- MIC, NH4Cl [7]: 4 µM
- MIC, ZnCl2 [7]: 2 µM
- MIC, MgCl2 [7]: 4 µM
- MIC, CaCl2 [7]: 16 µM
- MIC, KCl [7]: 4 µM
- MIC, NaCl [7]: 32 µM
- MIC, Control [7]: 4 µM
- MIC, FeCl3 [8]: 2 µM
- MIC, NH4Cl [8]: 2 µM
- MIC, ZnCl2 [8]: 2 µM
- MIC, MgCl2 [8]: 2 µM
- MIC, CaCl2 [8]: 2 µM
- MIC, KCl [8]: 2 µM
- MIC, NaCl [8]: 4 µM
- MIC, Control [8]: 2 µM
- MBC [9]: 8 µM
- MIC [9]: 4 µM
- MBC [10]: 16 µM
- MIC [10]: 8 µM
- MBC [11]: 4 µM
- MIC [11]: 2 µM
- GM, Gram-negative bacteria [12]: 4.32 µM
- TI, Gram-negative bacteria [12]: 29.63
- GM, Gram-positive bacteria [13]: 2.00 µM
- TI, Gram-positive bacteria [13]: 64.00
- MBC [14]: 8 µM
- MIC [14]: 4 µM
- MBC [15]: 8 µM
- MIC [15]: 4 µM
- MBC [16]: 8 µM
- MIC [16]: 4 µM
- MBC [17]: 4 µM
- MIC [17]: 2 µM
- GM, All [18]: 3.08 µM
- TI, All [18]: 41.56
- MBC [19]: 8 µM
- MIC [19]: 4 µM

Substance: WRRRWWWWR-NH2 [W6]
- MBC [1]: 8 µM
- MIC [1]: 4 µM
- MBC [2]: 16 µM
- MIC [2]: 8 µM
- MBC [3]: 2 µM
- MIC [3]: 1 µM
- MBC [4]: 4 µM
- MIC [4]: 2 µM
- MBC [5]: 4 µM
- MIC [5]: 2 µM
- MBC [6]: 4 µM
- MIC [6]: 2 µM
- MIC, FeCl3 [7]: 4 µM
- MIC, NH4Cl [7]: 2 µM
- MIC, ZnCl2 [7]: 4 µM
- MIC, MgCl2 [7]: 8 µM
- MIC, CaCl2 [7]: 16 µM
- MIC, KCl [7]: 8 µM
- MIC, NaCl [7]: 16 µM
- MIC, Control [7]: 4 µM
- MIC, FeCl3 [8]: 2 µM
- MIC, NH4Cl [8]: 2 µM
- MIC, ZnCl2 [8]: 2 µM
- MIC, MgCl2 [8]: 4 µM
- MIC, CaCl2 [8]: 4 µM
- MIC, KCl [8]: 2 µM
- MIC, NaCl [8]: 4 µM
- MIC, Control [8]: 2 µM
- MBC [9]: 16 µM
- MIC [9]: 8 µM
- MBC [10]: 16 µM
- MIC [10]: 8 µM
- MBC [11]: 4 µM
- MIC [11]: 2 µM
- GM, Gram-negative bacteria [12]: 5.04 µM
- TI, Gram-negative bacteria [12]: 50.79
- GM, Gram-positive bacteria [13]: 2.21 µM
- TI, Gram-positive bacteria [13]: 115.84
- MBC [14]: 8 µM
- MIC [14]: 4 µM
- MBC [15]: 8 µM
- MIC [15]: 4 µM
- MBC [16]: 8 µM
- MIC [16]: 4 µM
- MBC [17]: 8 µM
- MIC [17]: 4 µM
- GM, All [18]: 3.51 µM
- TI, All [18]: 72.93
- MBC [19]: 16 µM
- MIC [19]: 8 µM
